Test results reported in patent US9006194B2, “Compositions and methods for diminishing viral infection and inflammation associated with viral infection” (Drexel University, priority 2008, dated 2015).

Tested on: CD4+ and CD8+ T cells
Assay: Apoptosis assay of primary human CD4+ and CD8+ T lymphocytes exposed to Type 1 interferon (CD95/Fas-induced, Annexin V)
Settings: 5 ng/mL for 72 hours, resting or anti-CD3 activated T cells, n=5 healthy donors
Method: T cells were activated with anti-CD3 antibody. n=5 healthy donors for each group.
Primary human PBMC were isolated were isolated by density centrifugation using Ficoll from heparinized venous blood of HIV-1-seronegative adult donors and seeded into 24-well plates at a concentration of 1×10^6 cells/mL/well. Freshly isolated PBMC were treated with 5 ng/mL recombinant IFN-α (PBL Interferon Source; Piscataway, N.J.) in the presence or absence of monoclonal anti-CD3 antibody (OKT3). Anti-CD3 was immobilized by coating plates with 0.1 μg/mL in PBS for 2 hours. Following a 3 day incubation period, PBMC were harvested and transferred to 24-well plates that were uncoated or coated with 5 μg/mL monoclonal anti-CD95 antibody (IgM, CH11; Immunotech, Brea, Calif.) for 14 hour at 37° C. in 5% CO2. Cells were subsequently harvested, counted and stained for flow cytometry analysis. The following combinations of mAb were used to identify CD4+ and CD8+ T cell subpopulations: anti-CD3-PE/anti-CD4-APC/anti-CD8-PerCP; and for the apoptosis studies: Annexin V-Cy5.5 (eBioscience, San Diego, Calif.). One million cells were stained as previously described (Mueller Y M et al., 2001, Immunity. 15:871-882) with the combination of antibodies in HBSS (Cellgro, Herndon, Va.), 3% FBS, 0.02% NaN3 for 15 min on ice, washed twice with HBSS, 3% FBS, 0.02% NaN3 and fixed with 1% paraformaldehyde. […]

IFN-α
CD95/Fas-induced apoptosis of T cells (in words): increase
